Results taken from patent publication US12029715B2, “Precursor compounds for providing retinoids of the vitamin A5 pathway and uses thereof” (UNIVERSITY OF DEBRECEN, priority 2015, dated 2024).
Entries after “also recorded” stand apart in the source; their conditions may differ.

How the values were obtained:
[1] = system: differentiating monocyte-derived human dendritic cells; assay: DNA microarray in differentiating monocyte-derived dendritic cells; type: cell-based
Description: The generation and transcriptional analysis of differentiating DCs were performed as described previously [Szeles L et al. 2010]. Microarray data were deposited into the Gene Expression Omnibus database under accession no. GSE48573.
The generation and analysis of differentiating DCs were performed as described previously [Szeles L et al. 2010] with minor modifications. Briefly, human monocytes were isolated from healthy volunteer's buffy coat, obtained with a Regional Ethical Board permit from the Regional Blood Bank and isolated by Ficoll gradient centrifugation followed by immunomagnetic cell separation, and were cultured in the presence of GM-CSF and IL-4. Differentiating DCs were stimulated 18 h after […] by various agonists for 12 h. The ligands were used in the following concentrations: 10 μM (R)-9CDHRA, 10 μM (S)-9CDHRA, 1 μM 9cisRA, 100 nM LG100268, 1 μM GW3965, 1 μM Rosiglitazone (RSG), 1 μM GW1516, 100 nM AM580. Experiments were performed in biological triplicates. Samples were processed and hybridized to Human Genome U133 Plus 2.0 Arrays. Data were analysed using to GeneSpring 12.6.1 software. In detail, normalization was performed using RMA summarization algorithm. […] Microarray data were deposited into the Gene Expression Omnibus database under accession no. GSE48573.

[2] = system: human oligodendrocytes cell cultures; assay: Metabolic conversion in human oligodendrocytes cell culture (HPLC-MS); type: in vitro ADME; details: for 9CDHRA levels in cells after treatment (metabolism / accumulation): 10^−6M, n=3
Summary of the method: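 Cultured human oligodendrocytes at 80% confluency were treated with each retinoid or carotenoid at 10^−6 M for 18 h, with ethanol vehicle as control. Harvested cells were analysed by HPLC-MS for 9CDHRA levels, n=3 with standard deviation.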

[3] = system: Rbp1−/−, Rxrγ−/− and WT mice; assay: Delayed non-match to place (DNMTP) working memory task in the T-maze; type: in vivo, mouse
Description: Behaviorally naïve groups of mice were tested in the DNMTP (delayed non-match to place) procedure in the T-maze according to a protocol previously described (Wietrzych et al., 2005), with modifications to facilitate pharmacological tests (Wietrzych-Schindler et al., 2011). Spontaneous alternation was evaluated in the Ymaze apparatus according to protocol described in detail below.
Specifically, in the present protocol, animals were first trained for 10 consecutive days with minimal inter-trial intervals (ITI) of about 15 sec, which was necessary to attain the criterion of 90% or more of correct choices during […] consecutive days (days 9-10). After this period ITI was increased semi-randomly by blocks of 3-6 min during 5 consecutive days (days 11-15 indicated) to determine “test ITI” for each animal, which was defined as the shortest ITI at which mice perform at chance level. From day 16 mice were tested using corresponding “test ITI” delays following vehicle injection on the day 16 (to test for the effect of vehicle alone) and following 9CDHROL (40 mg/kg) injection on day 17. Three mice were excluded from testing since their latency to choose the arm during the retention phase exceeded 3 min in more than one trial/day on three consecutive days (exclusion criterion). On the day 18 mice were again injected (IP) with 9CDHROL (40 mg/kg) and 9 hours later sacrificed for chemical analyses. Mice which received vehicle injections on three consecutive days were used as vehicle-treated controls for analyses of 9CDHROL metabolism. An additional group of 3 naïve mice was also injected with 9CDHROL (40 mg/kg) to test for 9CDHROL metabolism following acute treatment.
In this variant, animals were first trained for 9 consecutive days of with minimal inter-trial intervals (ITI) of about 15 sec, which was necessary to attain the criterion of 90% or more of correct choices during three consecutive days (days 7-9). After this period ITI was increased semi-randomly to 180, 360, 720 and for some WT mice also 1080 seconds so that each animal was tested 6 times with each interval during four consecutive days (days 10-13 indicated). From day 13 mice were tested only twice per week beginning with training session on day one (with minimal, 15 sec ITIs) and testing pharmacological treatments on the second day. Only one pharmacological treatment was tested every 7 days. To test pro-mnemonic activities of UVI2108 and (R)-9CDHRA inventors used a minimal ITI, at which mice performed at chance level (50%) and which was 6 min for the Rbp1−/− or Rxrγ−/− groups and 12 min for most WT mice with exception of two mice tested at 18 min. Four mice (two wild types and one of each knockout line), were excluded from testing since their latency to choose the arm during the retention phase exceeded 3 min in more than one trial/day on three consecutive days (exclusion criterion).
For behavioral analysis, 9CDHROL and 9CDHBC were dissolved in ethanol, and then mixed with sunflower oil, so that the final solution contained 3% ethanol. Vehicle treatments consisted of 3% ethanol solution in sunflower oil. For memory studies treatments with 9CDHRA were administered by intraperitoneal injections at volume/weight ratio 3 ml/kg at 7 am and 7 hours before the beginning of testing. For tests with animal model of chronic social defeat, different treatments were administered by intraperitoneal injections at volume/weight ratio 3 ml/kg at 10 mg/kg for each substance between 5-6 pm every second day of stress protocol immediately after the stress session starting from day 1 of the stress protocol.
Vehicle treatments consisted of 3% ethanol and 3% DMSO solution in sunflower oil. Treatments were administered by intraperitoneal injections at volume/weight ratio 3 ml/kg between 8-10 am and 5-6 h before the test as previously validated (Wietrzych-Schindler M, 2011).

[4] = Rbp1−/− mice, ITI of 6 min, acute treatment, (R)-9CDHRA 1 or 2 mg/kg

CC(C=CC1=C(C)CCCC1(C)C)=CC=CC(C)CC(=O)O (stereo not drawn) [9CDHRA, 9-cis-13,14-dihydroretinoic acid]
expression of genes induced by AM580 (RAR-RXR target genes) [1]: also induced
transcripts regulated by LG268 (RXR-specific agonist) also regulated ([1]; 72 LG268 transcriptional targets): 68 out of 72
9CDHRA levels in cells after treatment (metabolism / accumulation) [2]: strong accumulation

CC1=C(/C=C/C(C)=C\C=C\C(C)CCO)C(C)(C)CCC1 (stereo not drawn) [9CDHROL, 9-cis-13,14-dihydroretinol]
working memory performance in DNMTP task ([3]; wild type C57BL6N male mice, 40 mg/kg, 7-9 h after treatment, mean ITI of 13 min, 40 mg/kg): improved working memory performance; also recorded: significantly enhanced memory performance
9CDHRA levels in cells after treatment (metabolism / accumulation) [2]: moderately but significantly metabolized
precursor substrate of 9CDHROL ([2]; in vitro): excellent precursor substrates

CC1=C(/C=C/C(C)=C\C=C\[C@H](C)CC(=O)O)C(C)(C)CCC1 [(R)-9CDHRA, (9Z,13R)-13,14-Dihydroretinoic Acid]
overlap in transcriptional changes with 9CRA [1]: about 80%
share of all transcripts regulated by 9CRA that are similarly regulated by (R)-9CDHRA [1]: 85%
transcripts similarly regulated by both (R)-9CDHRA and 9CRA ([1]; 10 μM (R)-9CDHRA, 1 μM 9CRA): 384
number of transcripts regulated ([1]; 10 μM (R)-9CDHRA, 1 μM 9CRA, 12 h, FC>2): 518
expression of genes that are direct targets of RXR permissive heterodimers (LXR-RXR, PPAR-RXR) and RAR-RXR ([1]; 9CDHRA 10 μM, 9CRA 1 μM, LG268 100 nM, GW3965 1 μM, RSG 1 μM, GW1516 1 μM, AM580 100 nM): induced the expression of genes; also recorded: induce the expression of many genes
working memory performance in DNMTP task [3, 4]: reversed working memory deficits; also recorded: improved memory performance
correct choices in DNMTP task ([3]; Rxrγ−/− mice, ITI 6 min): 57±7 % of correct choices
correct choices in DNMTP task ([3]; WT mice, 2 mg/kg, ITI of 12 or 18 min): about 70 % of correct choices
working memory performance in DNMTP task ([3]; WT mice, ITI of 12 or 18 min): showed pro-mnemonic activity; also recorded: raised performance

CC1(C)CCC(C)(C)c2cc(C3(c4ccc(C(=O)O)cc4)OCCO3)ccc21 [UVI2108, reference compound]
working memory performance in DNMTP task [3, 4]: reversed memory deficits
working memory performance in DNMTP task ([3]; Rxrγ−/− mice, ITI of 6 min): remained ineffective
